Activity calls are given as the source filed them.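 How the source made its calls: active means AC50, the dose giving half-maximal effect, exceeds a fixed cutoff for a compound that rescues yeast growth under heat; inactive means the rest, inconclusive results apart.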 Some results are limits rather than exact numbers.

The subject of the experiment is S. cerevisiae Burl-1 ts mutant growth, BacTiter-Glo, 38.5C 24 h. Nature of the experiment: restored growth of temperature-sensitive Burl-1 yeast – whole organism, S. cerevisiae, Burl-1 ts mutant, luminescence, counter-screen for SUMOylation pathway inhibitor project, dose response (AID 463199). (The purpose of a counterscreen is to sort out artefacts and off-target activity.)
The term AC50 denotes the concentration giving half of the maximal activity seen. As for `CCn1c(SCc2nc3ccccc3[nH]2)nnc1-c1cccnc1`, the AC50 was > 42 µM (inactive).
In the case of `CC(=O)c1ccc(NC(=O)CSc2nnc(-c3ccco3)o2)cc1` it was > 42 µM (inactive); in that of `CCOP(=O)(Cc1cc(C(=O)CC)c(C)o1)OCC`, > 42 µM (inactive); in that of `C=CCNc1nnc(SC2CC(=O)N(c3ccc(OCCC)cc3)C2=O)s1` (centres undefined), > 42 µM (inactive).
With `Cc1ccccc1Nc1c([N+](=O)[O-])ccc2c1=NC1(CCCCC1)N=2`, the AC50 is > 42 µM (inactive).
In the case of `O=C(CSc1nc(O)cc(=O)n1-c1ccccc1)NC1CCCCC1` it was > 42 µM (inactive).
As for `Cc1cc(C)n2c(SCC(C)C)nnc2n1`, the AC50 is > 42 µM (inactive).
In the case of `O=C(C1CCC(CNc2c(N3CCCCC3)c(=O)c2=O)CC1)N1CCN(C2CCCCC2)CC1` (centres undefined) it was > 42 µM (inactive); in that of `Cc1cnc(C(=O)OC(C(=O)c2c[nH]c3ccccc23)c2ccccc2)cn1` (centres undefined), > 42 µM (inactive); in that of `CCN1CCCC1CN(Cc1cc2ccc(C)cc2[nH]c1=O)C(=S)Nc1ccccc1C(=O)OC` (centres undefined), > 42 µM (inactive).
Regarding `COc1cc(NC(=O)C2=CC(c3ccco3)=NS(=O)(=O)N2C)cc(OC)c1OC`, the AC50 is > 42 µM (inactive).
Under `COc1ccc(C(=O)Nc2ccccc2C(=O)NCCN2CCOCC2)cc1OC` stands > 42 µM (inactive); under `Cc1cc(Nc2nc3c(c(=O)n(C)c(=O)n3C)n2C)n(-c2ccc(Cl)cc2)n1`, > 42 µM (inactive).
With `CCOc1ccc(NC(=O)CSc2nnc(Cc3csc(C)n3)o2)cc1`, the AC50 was > 42 µM (inactive).
Under `Cc1ccccc1-c1nnc(SCc2ccc(F)cc2)o1` stands > 42 µM (inactive).
Under `O=C(OCC(=O)N1CCN(Cc2ccccc2)CC1)c1ccc(Cl)cc1` stands > 42 µM (inactive); under `CCCCC(=O)NCCc1ccc(S(N)(=O)=O)cc1`, > 42 µM (inactive); under `COC(=O)c1ccncc1C(=O)Nc1ccc(Oc2ncc(C(F)(F)F)cc2Cl)cc1`, > 42 µM (inactive).
In the case of `O=C(COC(=O)c1ccc([N+](=O)[O-])o1)Nc1ncc(Cl)cc1Cl` it was > 42 µM (inactive); in that of `Cc1c(C(=O)NC(C)c2ccc(-n3ccnc3)cc2)cccc1[N+](=O)[O-]` (centres undefined), > 42 µM (inactive); in that of `COC(=O)c1ccc(CN2CCN(C3CCCCC3)C(CCO)C2)cc1` (centres undefined), > 42 µM (inactive).
With `CCN(CC)C(=O)CSc1nnc(SCc2ccc(Cl)cc2)s1`, the AC50 was > 42 µM (inactive).
Under `CC1=Nc2ccccc2/C1=C\c1nc(-c2ccccc2)oc1O` stands > 42 µM (inactive); under `CCOC(=O)N1CCN(C(=O)c2ccccc2-c2ccccc2)CC1`, > 42 µM (inactive).
In the case of `OC1CN=C2CCCc3c2n(c2ccc(Cl)cc32)C1` (centres undefined) it was > 42 µM (inactive); in that of `COc1ccc(N2CCN(C(c3cccs3)C(C)NS(C)(=O)=O)CC2)cc1` (centres undefined), > 42 µM (inactive).
For the compound `COc1ccc2c(c1)OC[C@H]1[C@H]2N2C(=O)c3cc(F)ccc3NC(=O)[C@@]2(C)[C@H]1c1ccccc1`, the AC50 is > 42 µM (inactive).
In the case of `COc1ccc(C2CC(c3cccs3)=NN2C(=O)c2ccccc2)cc1OC` (centres undefined) it was > 42 µM (inactive).
Under `CCOC(=O)c1cc2c(ccn2-c2ccc(F)cc2)n1CC(=O)N1CCN(C(=O)c2ccco2)CC1` stands > 42 µM (inactive); under `CCc1ccc(-c2nc(SCC(=O)N3CCOCC3)n[nH]2)cc1`, > 42 µM (inactive).
With `O=C(Oc1ccc2c(c1)OCO2)c1cccs1`, the AC50 is > 42 µM (inactive).
Under `CC(C)NC(=O)c1ccccc1-c1ccccc1` stands > 42 µM (inactive); under `COc1cc2ccccc2cc1C(=O)Nc1ccc(CN2CCOCC2)cc1`, > 42 µM (inactive).
In the case of `Cc1nn(CC(N)=O)c(=O)c2ccccc12` it was > 42 µM (inactive).
Under `COc1ccc(N2C(=O)CCC(C(=O)NCc3cccnc3)C2c2ccc(OC)c(OC)c2)cc1` (centres undefined) stands > 42 µM (inactive); under `CS(=O)(=O)N(CC(=O)N1CCCC1)c1cccc(Cl)c1Cl`, > 42 µM (inactive); under `COc1ccc(C(=O)Sc2ccc(Cl)cc2)cc1OC`, > 42 µM (inactive).
As for `Nc1nc(CSc2nnnn2-c2ccc(Cl)cc2)nc(N2CCOCC2)n1`, the AC50 is > 42 µM (inactive).
Regarding `Cc1cc(C)cc(OCC(=O)Nc2ccc(N3CCN(C(=O)c4ccco4)CC3)cc2)c1`, the AC50 is > 42 µM (inactive).
`CCOC(=O)c1nc(Nc2ccccc2CC)c2ccccc2n1`: the AC50 is > 42 µM (inactive).
As to `CC(C)Cc1cc(CN2CCC(CO)(Cc3ccccc3)CC2)[nH]n1`, the AC50 is > 42 µM (inactive).
`CCN1CCCC1CNC(=O)Cn1cnc2ccc(S(=O)(=O)N3CCC(C)CC3)cc2c1=O` (centres undefined): the AC50 was > 42 µM (inactive).
In the case of `c1ccc2nc3c(nc2c1)OCC1CCCCN31` (centres undefined) it was > 42 µM (inactive); in that of `Cc1nc(NCCN2CCOCC2)c2nnn(Cc3c(F)cccc3Cl)c2n1`, > 42 µM (inactive); in that of `CCN1CCN(CC(=O)N2N=CCC2c2ccccc2)CC1` (centres undefined), > 42 µM (inactive).
In the case of `COc1cccc(NC(=O)Nc2cc(C(=O)NC(C)C)ccc2N2CC3CC(C2)c2cccc(=O)n2C3)c1` (centres undefined), the AC50 was > 42 µM (inactive).
Under `CCN(CC)C(=O)CSC(Nc1cccc(F)c1)=C(C#N)C#N` stands > 42 µM (inactive); under `COc1ccc(NC(=O)CSc2nccc(C)n2)cc1`, > 42 µM (inactive).
As for `O=C1NC(=O)N(Cc2ccccc2)C1=O`, the AC50 is > 42 µM (inactive).
Under `CN(C)CC/C=C1\c2ccccc2Sc2ccc(Cl)cc21` stands > 42 µM (inactive); under `c1ccc(CNc2ncnc3sc4c(c23)CCC4)nc1`, > 42 µM (inactive); under `Cc1ccc(S(=O)(=O)/N=C(/Nc2ccc([N+](=O)[O-])cc2[N+](=O)[O-])c2ccccc2)cc1`, > 42 µM (inactive).
In the case of `O=C1Nc2ccccc2/C1=C/c1ccc([N+](=O)[O-])cc1` it was > 42 µM (inactive).
Under `c1ccc2c(c1)OCCOCCOc1ccccc1OCCOCCO2` stands > 42 µM (inactive); under `S=c1[nH]nc(-c2ccccn2)n1/N=C/c1ccccc1`, > 42 µM (inactive); under `Cc1nc2sc(C(c3ccco3)N3CCOCC3)c(O)n2n1` (centres undefined), > 42 µM (inactive).
Turning to `O=C(NCc1ccco1)C1CC(=O)N(c2ccc(Cl)cc2)C1` (centres undefined), the AC50 was > 42 µM (inactive).
In the case of `Cc1ccc(N(CC(=O)NCCc2ccc(Cl)cc2)S(=O)(=O)c2c(C)noc2C)cc1` it was > 42 µM (inactive).
In the case of `OC(COCc1cccs1)CN1CCCCCC1` (centres undefined) it was > 42 µM (inactive).
In the case of `CCN(CC)S(=O)(=O)c1ccc(C(=O)NCCc2cc3c(OC)ccc(OC)c3[nH]c2=O)cc1` it was > 42 µM (inactive).
Consider `Cc1csc(=O)n1CC(=O)OCC(=O)Nc1cc([N+](=O)[O-])ccc1Cl`, for which the AC50 was > 42 µM (inactive).
In the case of `CC1=Nc2ccc(C)cc2N(Cc2ccccc2)C(=O)C1` it was > 42 µM (inactive).
In the case of `CCC(=O)Nc1ccc(Br)c(Cl)c1` it was > 42 µM (inactive); in that of `CCOc1ccc(Br)cc1CNCCN1CCOCC1`, > 42 µM (inactive); in that of `Cc1ccc(O)c(C(=O)CC(=O)c2cccc(F)c2)c1`, 20.1 µM.
Under `CCCCN(C)C(=O)c1cc2c(Cl)nc3ccccc3c2s1` stands > 42 µM (inactive); under `Cc1ccc(Sc2cnccc2C#N)cc1`, > 42 µM (inactive).
On to `O=C(O)CCC(=O)N1N=C(c2c(-c3ccccc3)c3cc(Cl)ccc3[nH]c2=O)CC1c1ccco1` (centres undefined), for which the AC50 is > 42 µM (inactive).
Under `CC(=O)Nc1sc2c(c1C(c1ccc(F)cc1)N1CCOCC1)CCCC2` (centres undefined) stands > 42 µM (inactive).
In the case of `COc1ccc(S(=O)(=O)NCC(=O)N(CC(=O)NCc2ccco2)Cc2ccccc2)cc1` it was > 42 µM (inactive); in that of `Cc1ccc(NC(=O)CN(C)C(=O)c2cccc(Br)c2)cc1`, > 42 µM (inactive); in that of `O=C(Oc1ccccc1N1C(=O)C2CC=CCC2C1=O)c1ccc(Br)cc1` (centres undefined), > 42 µM (inactive).
Under `O=C(CSc1ccc(Br)cc1)Nc1ccccc1N1CCOCC1` stands > 42 µM (inactive); under `Cc1cc(OCC(=O)NCC2CCC(C(=O)O)CC2)c2c(C)c(C)c(=O)oc2c1` (centres undefined), > 42 µM (inactive).
Regarding `CN1C(=O)C(O)(CC(=O)c2ccccc2O)c2cc(Br)ccc21` (centres undefined), the AC50 was > 42 µM (inactive).
In the case of `CC1(C)Oc2ccc3ccc(=O)oc3c2/C(=C/Nc2ccc(O)cc2)C1=O` it was > 42 µM (inactive); in that of `COc1ccc(C(=O)CSc2nnc3ccc(-c4ccccn4)nn23)cc1`, > 42 µM (inactive).
In the case of `CSc1nncc(/C(C)=N\Nc2cccc(C)c2)n1` it was > 42 µM (inactive); in that of `COc1cccc(/C=C2\SC(N3CCC(C)CC3)=NC2=O)c1OC`, > 42 µM (inactive); in that of `COc1ccccc1CNCc1cc(OC)c(OC)c(OC)c1`, > 42 µM (inactive).
Consider `CC(C)C(=O)Nc1ccc(NC(=S)NC(=O)c2ccccc2F)cc1`, for which the AC50 is > 42 µM (inactive).
Take `O=C(Nc1cccc(C(=O)Nc2ccc(F)cc2F)c1)c1ccccc1`: the AC50 is > 42 µM (inactive).
In the case of `Cc1cc(=O)n2[nH]c(-c3ccc(F)cc3)nc2n1` it was > 42 µM (inactive).
In the case of `CCCCC(=O)NC(=S)Nc1cccc(C(=O)O)c1` it was > 42 µM (inactive); in that of `CNS(=O)(=O)c1cccc(C(=O)NCC2(N3CCCCC3)CCCCC2)c1`, > 42 µM (inactive).
Under `CCS(=O)(=O)N1CCC(C(=O)N2CCc3ccccc3C2)CC1` stands > 42 µM (inactive); under `CCCOC(=O)c1c(NC(=O)/C=C/c2cnn(C)c2C)sc(C(=O)OC)c1C`, > 42 µM (inactive); under `COc1ccc(-c2cc(C#N)nc(N3CCN(c4ccccc4)CC3)n2)cc1`, > 42 µM (inactive).
Turning to `CCC(C)[C@H](N)c1nnc(SCC(=O)Nc2cccc(Cl)c2)o1` (some centres undefined), the AC50 was > 42 µM (inactive).

Source of the values: PubChem BioAssay AID463199 (Broad Institute, 2010).
